Measurements published in article PMC9424684, “Z1456467176 alleviates gouty arthritis by allosterically modulating P2X7R to inhibit NLRP3 inflammasome activation” (Frontiers in Pharmacology, 2022).
Structures can show the parent of a compound that is named as a salt.

Target: T1, hP2X7R (purinergic receptor P2X7, P2X7R) (Homo sapiens, UniProt Q99572)
T1 construct: gene P2RX7; homotrimer
T1 sequence (Q99572 1-595): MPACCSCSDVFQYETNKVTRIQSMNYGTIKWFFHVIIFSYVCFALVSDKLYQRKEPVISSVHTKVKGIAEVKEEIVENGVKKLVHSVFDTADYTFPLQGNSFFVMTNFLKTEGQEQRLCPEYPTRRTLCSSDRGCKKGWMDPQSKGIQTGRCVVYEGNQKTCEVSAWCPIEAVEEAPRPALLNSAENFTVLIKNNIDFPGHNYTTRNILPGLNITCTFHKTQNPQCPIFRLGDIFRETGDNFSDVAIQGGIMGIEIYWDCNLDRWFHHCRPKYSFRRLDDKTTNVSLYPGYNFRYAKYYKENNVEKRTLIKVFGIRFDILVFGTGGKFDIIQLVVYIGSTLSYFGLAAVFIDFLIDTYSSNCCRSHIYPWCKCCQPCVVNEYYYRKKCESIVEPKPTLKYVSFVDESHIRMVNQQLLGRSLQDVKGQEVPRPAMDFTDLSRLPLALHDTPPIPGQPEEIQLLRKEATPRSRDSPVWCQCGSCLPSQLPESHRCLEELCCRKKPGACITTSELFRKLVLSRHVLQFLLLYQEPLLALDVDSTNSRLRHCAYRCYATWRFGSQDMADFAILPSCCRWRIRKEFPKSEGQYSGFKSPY
Assay: ethidium bromide uptake (pore formation), flow cytometry, HEK-293T cells
Assay type: cell-based
Details: read-out: EB uptake IC50

IC50: 3.42 µM
Compound: CC(Cc1cccc(C(F)(F)F)c1)C(=O)Nc1cccc(S(=O)(=O)NCCN)c1 (stereo not shown) [Z1456467176, N-{3-[(2-aminoethyl)sulfamoyl]phenyl}-2-methyl-3-[3-(trifluoromethyl)phenyl] propanamide hydrochloride]
